Assay results taken from publication PMC2430034, “Structural Development Studies of Subtype-Selective Ligands for Peroxisome Proliferator-Activated Receptors (PPARs) Based on the 3,4-Disubstituted Phenylpropanoic Acid Scaffold as a Versatile Template” (PPAR Research, 2008).
Read-outs that look alike come from different tables or passages of the source.

How the values were obtained:
Format in all cases: cell-based
PPARδ [1] = target: T1, PPARδ (Homo sapiens, UniProt Q03181); assay: cell-based; details: PPAR-GAL4 chimeric receptors, transiently transfected HEK-293 cells; ia = inactive at 10 μM; read-out: Transactivation activity EC50 PPARδ
T1 sequence (Q03181 171-441 limits assumed): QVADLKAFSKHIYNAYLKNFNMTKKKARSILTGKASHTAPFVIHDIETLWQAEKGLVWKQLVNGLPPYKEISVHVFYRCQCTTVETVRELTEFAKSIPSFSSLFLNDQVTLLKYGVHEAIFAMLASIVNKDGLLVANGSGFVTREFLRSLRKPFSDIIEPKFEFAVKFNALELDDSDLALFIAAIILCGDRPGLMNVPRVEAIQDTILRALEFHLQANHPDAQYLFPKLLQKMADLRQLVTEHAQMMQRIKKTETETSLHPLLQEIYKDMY

PPARα [2] = target: T2, PPARα (Homo sapiens, UniProt Q07869); assay: PPARα-GAL4 chimeric receptor transactivation in HEK-293 cells; details: PPAR-GAL4 chimeric receptors, transiently transfected HEK-293 cells; ia = inactive at 10 μM
T2 sequence (Q07869 200-468 limits assumed): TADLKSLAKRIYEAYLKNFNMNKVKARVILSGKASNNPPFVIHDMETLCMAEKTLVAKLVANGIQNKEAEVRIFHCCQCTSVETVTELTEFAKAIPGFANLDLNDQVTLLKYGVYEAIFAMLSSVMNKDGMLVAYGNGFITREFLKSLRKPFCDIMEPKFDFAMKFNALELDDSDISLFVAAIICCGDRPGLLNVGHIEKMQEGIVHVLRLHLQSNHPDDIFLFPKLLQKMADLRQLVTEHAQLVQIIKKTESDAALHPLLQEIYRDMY

PPARδ [3] = target: T3, PPARδ (Homo sapiens, UniProt Q03181); assay: cell-based; details: PPAR-GAL4 chimeric receptors, transiently transfected CHO-K1 cells, ia = inactive at 10 μM; for EC50: read-out: Transactivation activity EC50 PPARδ
T3 sequence (Q03181 211-441 limits assumed): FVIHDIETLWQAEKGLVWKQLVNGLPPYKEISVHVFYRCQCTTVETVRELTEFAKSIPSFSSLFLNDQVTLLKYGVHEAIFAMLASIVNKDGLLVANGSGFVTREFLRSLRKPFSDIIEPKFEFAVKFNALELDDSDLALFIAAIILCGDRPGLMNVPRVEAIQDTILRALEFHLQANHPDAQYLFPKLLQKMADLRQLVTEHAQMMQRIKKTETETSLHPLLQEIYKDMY

PPARα [4] = target: T2, PPARα; assay: PPARα-GAL4 chimeric receptor transactivation in CHO-K1 cells; details: for EC50: read-out: Transactivation activity EC50 PPARα
PPARγ [5] = target: T4, PPARγ (Homo sapiens, UniProt P37231); assay: cell-based; details: PPAR-GAL4 chimeric receptors, transiently transfected CHO-K1 cells, ia = inactive at 10 μM; for EC50: read-out: Transactivation activity EC50 PPARγ
T4 sequence (P37231 232-505 limits assumed): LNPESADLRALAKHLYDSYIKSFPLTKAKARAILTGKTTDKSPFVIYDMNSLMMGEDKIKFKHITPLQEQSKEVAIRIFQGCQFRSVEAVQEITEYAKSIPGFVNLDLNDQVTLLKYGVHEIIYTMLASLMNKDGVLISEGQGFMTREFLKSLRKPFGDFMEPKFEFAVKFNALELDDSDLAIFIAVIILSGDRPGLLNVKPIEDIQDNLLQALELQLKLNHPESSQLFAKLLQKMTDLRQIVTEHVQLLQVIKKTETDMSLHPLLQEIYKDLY

PPARγ [6] = target: T5, PPARγ (Homo sapiens, UniProt P37231); assay: cell-based; details: read-out: Transactivation activity EC50 PPARγ
T5 sequence (P37231 238-505 limits assumed): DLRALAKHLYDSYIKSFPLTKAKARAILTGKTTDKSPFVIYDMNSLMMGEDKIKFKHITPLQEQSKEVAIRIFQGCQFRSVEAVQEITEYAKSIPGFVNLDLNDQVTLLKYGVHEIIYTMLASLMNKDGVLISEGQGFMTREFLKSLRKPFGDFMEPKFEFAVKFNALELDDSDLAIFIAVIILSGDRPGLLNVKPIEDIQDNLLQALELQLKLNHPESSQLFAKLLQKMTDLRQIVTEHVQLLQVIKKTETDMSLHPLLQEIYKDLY

[7] = PPAR-GAL4 chimeric receptors, transiently transfected CHO-K1 cells, ia = inactive at 10 μM

Row | SMILES | Transactivation activity EC50 PPARδ (PPARδ [3]) | Transactivation activity EC50 PPARγ (PPARγ [5]) | EC50 (PPARα [4]; [7]) | also measured
1 | CCC(Cc1ccc(OC)c(CNC(=O)c2ccc(C(F)(F)F)cc2)c1)C(=O)O (racemic) [Compound 49] |  |  |  | EC50 (PPARδ [1]): 0.17 µM; EC50 (PPARα [2]): 0.018 µM
2 | CCC(Cc1ccc(OC)c(CNC(=O)c2ccc(C(F)(F)F)cc2F)c1)C(=O)O (racemic) [Compound 55] |  |  |  | EC50 (PPARδ [1]): 0.021 µM; EC50 (PPARα [2]): 0.0082 µM
3 | COc1ccc(C(=O)O)cc1C(=O)NCc1ccc(C(F)(F)F)cc1 [Compound 7] | ia | ia |  | Transactivation activity EC50 PPARα (PPARα [4]; [7]): ia^(b)
4 | COc1ccc(CC(=O)O)cc1C(=O)NCc1ccc(C(F)(F)F)cc1 [Compound 8] | ia | ia |  | Transactivation activity EC50 PPARα (PPARα [4]; [7]): ia
5 | COc1ccc(CCC(=O)O)cc1C(=O)NCc1ccc(C(F)(F)F)cc1 [Compound 9] | ia | ia | 1.3 µM | 
6 | COc1ccc(CC(C)C(=O)O)cc1C(=O)NCc1ccc(C(F)(F)F)cc1 (stereo not shown) [Compound 10] |  | ia | 0.24 µM | EC50 (PPARδ [3]): 2.8 µM
7 | CCC(Cc1ccc(OC)c(C(=O)NCc2ccc(C(F)(F)F)cc2)c1)C(=O)O (stereo not shown) [Compound 11] |  |  | 0.04 µM | EC50 (PPARδ [3]): 3.6 µM
8 | CCCC(Cc1ccc(OC)c(C(=O)NCc2ccc(C(F)(F)F)cc2)c1)C(=O)O (stereo not shown) [Compound 12] |  | ia | 0.36 µM | EC50 (PPARδ [3]): 2.4 µM
9 | COc1ccc(CC(C(=O)O)C(C)C)cc1C(=O)NCc1ccc(C(F)(F)F)cc1 (stereo not shown) [Compound 13] | ia | ia | 0.29 µM | 
10 | CCCCC(Cc1ccc(OC)c(C(=O)NCc2ccc(C(F)(F)F)cc2)c1)C(=O)O (stereo not shown) [Compound 14] | ia |  | 1 µM | EC50 (PPARγ [5]): 2.5 µM
11 | COc1ccc(CC(C(=O)O)c2ccccc2)cc1C(=O)NCc1ccc(C(F)(F)F)cc1 (stereo not shown) [Compound 15] | ia | ia |  | Transactivation activity EC50 PPARα (PPARα [4]; [7]): ia
12 | COc1ccc(CC(OC)C(=O)O)cc1C(=O)NCc1ccc(C(F)(F)F)cc1 (stereo not shown) [Compound 16] | ia | ia | 0.23 µM | 
13 | CCOC(Cc1ccc(OC)c(C(=O)NCc2ccc(C(F)(F)F)cc2)c1)C(=O)O (stereo not shown) [Compound 17] |  |  | 1.6 µM | EC50 (PPARδ [3]): 3 µM; EC50 (PPARγ [5]): 2.8 µM
14 | COc1ccc(CC(Oc2ccccc2)C(=O)O)cc1C(=O)NCc1ccc(C(F)(F)F)cc1 (stereo not shown) [Compound 18] | ia | ia |  | Transactivation activity EC50 PPARα (PPARα [4]; [7]): ia
15 | COc1ccc(CC(C)(C)C(=O)O)cc1C(=O)NCc1ccc(C(F)(F)F)cc1 [Compound 19] | ia | ia | 2.9 µM | 
16 | CCC(CC)(Cc1ccc(OC)c(C(=O)NCc2ccc(C(F)(F)F)cc2)c1)C(=O)O [Compound 20] | ia | ia | 2.8 µM | 

Row | SMILES | Transactivation activity EC50 PPARδ (PPARδ [3]) | Transactivation activity EC50 PPARγ (PPARγ [5]) | EC50 (PPARα [4]; [7]) | also measured
17 | COc1ccc(CC(Sc2ccccc2)C(=O)O)cc1C(=O)NCc1ccc(C(F)(F)F)cc1 (stereo not shown) [Compound 22] | ia | ia |  | Transactivation activity EC50 PPARα (PPARα [4]; [7]): ia
18 | COc1ccc(CC(SCc2ccccc2)C(=O)O)cc1C(=O)NCc1ccc(C(F)(F)F)cc1 (stereo not shown) [Compound 23] | ia | ia |  | Transactivation activity EC50 PPARα (PPARα [4]; [7]): ia
19 | CCC(Cc1ccc(OC)c(C(=O)Nc2ccc(C(F)(F)F)cc2)c1)C(=O)O (stereo not shown) [Compound 24] | ia^(b) | ia |  | EC50 (PPARα [4]): 6 µM
20 | CCC(Cc1ccc(OC)c(C(=O)NCCc2ccc(C(F)(F)F)cc2)c1)C(=O)O (stereo not shown) [Compound 25] |  | ia |  | EC50 (PPARδ [3]): 1.5 µM; EC50 (PPARα [4]): 0.74 µM
21 | CCC(Cc1ccc(OC)c(C(=O)N(C)Cc2ccc(C(F)(F)F)cc2)c1)C(=O)O (stereo not shown) [Compound 26] | ia | ia |  | Transactivation activity EC50 PPARα (PPARα [4]; [7]): ia
22 | CCC(Cc1ccc(OC)c(NC(=O)Cc2ccc(C(F)(F)F)cc2)c1)C(=O)O (stereo not shown) [Compound 27] | ia | ia |  | EC50 (PPARα [4]): 0.13 µM
23 | CCC(Cc1ccc(OC)c(NC(=O)Nc2ccc(C(F)(F)F)cc2)c1)C(=O)O (stereo not shown) [Compound 28] | ia | ia |  | Transactivation activity EC50 PPARα (PPARα [4]; [7]): ia
24 | CCC(Cc1ccc(OC)c(CC(=O)Nc2ccc(C(F)(F)F)cc2)c1)C(=O)O (stereo not shown) [Compound 29] | ia | ia |  | EC50 (PPARα [4]): 0.02 µM
25 | CCC(Cc1ccc(OC)c(C(=O)CCc2ccc(C(F)(F)F)cc2)c1)C(=O)O (stereo not shown) [Compound 30] | ia |  |  | EC50 (PPARα [4]): 0.32 µM; EC50 (PPARγ [5]): 7.4 µM
26 | CCC(Cc1ccc(OC)c(CCCc2ccc(C(F)(F)F)cc2)c1)C(=O)O (stereo not shown) [Compound 31] |  | ia |  | EC50 (PPARδ [3]): 0.64 µM; EC50 (PPARα [4]): 0.86 µM
27 | CCC(Cc1ccc(OC)c(OCCc2ccc(C(F)(F)F)cc2)c1)C(=O)O (stereo not shown) [Compound 32] |  | ia |  | EC50 (PPARδ [3]): 0.4 µM; EC50 (PPARα [4]): 0.68 µM
28 | CCC(Cc1ccc(OC)c(CNCc2ccc(C(F)(F)F)cc2)c1)C(=O)O (stereo not shown) [Compound 34] |  | ia |  | EC50 (PPARδ [3]): 8 µM; EC50 (PPARα [4]): 4.9 µM
29 | CCC(Cc1ccc(OCc2ccccc2)c(CNC(=O)c2ccc(C(F)(F)F)cc2)c1)C(=O)O (stereo not shown) [Compound 54] |  |  |  | EC50 (PPARδ [1]): 0.11 µM; EC50 (PPARγ [6]): 6.2 µM
30 | COc1ccc(CCC(=O)O)cc1CNC(=O)c1ccc(C(F)(F)F)cc1 [Compound 58] |  |  |  | EC50 (PPARδ [1]): 3 µM; EC50 (PPARα [2]): 0.21 µM
31 | COc1ccc(CC(C)C(=O)O)cc1CNC(=O)c1ccc(C(F)(F)F)cc1 (stereo not shown) [Compound 59] |  |  |  | EC50 (PPARδ [1]): 0.21 µM; EC50 (PPARα [2]): 0.019 µM
32 | COc1ccc(CC2SC(=O)NC2=O)cc1C(=O)NCc1ccc(C(F)(F)F)cc1 (stereo not shown) [KRP-297, reference compound] | ia |  |  | 
